Results as given in patent US12433872B2, “Treatment of Acanthamoeba or Balamuthia trophozoites and/or cysts” (GEORGIA STATE UNIVERSITY RESEARCH FOUNDATION, INC., priority 2018, dated 2025).
Read-outs that look alike come from different tables or passages of the source.

Key:
[1] = system: Acanthamoeba castellanii trophozoites; assay: Activity against Acanthamoeba castellanii trophozoites; type: cell-based
Procedure: Two Acanthamoeba species (Acanthamoeba castellanii—ATCC50370 and Acanthamoeba culbertsoni—ATCC30171) were bought from the American Type Culture Collection (ATCC) and one species (Acanthamoeba healyi) was donated from the Centers for Disease Control and Prevention (CDC) for our experimentations. Trophozoites were thawed and grown in 10 mL of a nutrient rich Peptose-Glucose (PG) media. The PG media composition is 83.26 mM Glucose (15 g/L), Protease Peptone (15 g/L, yeast extract is manufactured under controlled conditions to retain its vitamin content and other nutritive values such as free amino acids, no other composition information given), 2.2 mM KH2PO4 (300 mg/L), 2.97 μM Thiamine (1 mg/L), 99.86 μM L-methionine (14.9 mg/L), 4.6 μM Vitamin B12 (83.3 μl of 0.1 mg/mL stock/L) and 68 μM Biotin (83.3 μl of 0.2 mg/mL stock/L). […] One mL/L of the salt solution was added to the media stock prior to autoclaving. All reagents were purchased from Sigma Aldrich except the Glucose which was purchased from Alfa Aesar. The cell pellet was resuspended in a final volume of 10 mL of PG media, cultured in 75 cm^2 coming tissue culture flasks and incubated at 27° C. PG was supplemented with 125 μg of penicillin/streptomycin. Sub-culturing occurred twice per week to allow the continued growth and development of the Acanthamoeba trophozoites. […]

[2] = system: Balamuthia mandrillaris trophozoites; assay: Activity against Balamuthia mandrillaris trophozoites; type: cell-based; conditions: Balamuthia mandrillaris, read-out: Balamuthia mandrillaris IC50
Procedure: Balamuthia mandrillaris trophozoites were thawed and grown in 10 ml of BM-3 medium. […] After autoclaving, complete BM-3 media was produced by the addition of 10% fetal bovine serum and 125 μg of penicillin/streptomycin antibiotics. The table describes all of the compounds and the activity against Balamuthia trophozoites compared to the activity for select Acanthamoeba trophozoites shown in Table 5.

[3] = read-out: Acanthamoeba castellanii IC50
[4] = trophozoites, n = 2, Table 6, read-out: Acanthamoeba castellanii IC50

Compound	IC50 [1, 3] [nM]	IC50 [2] [nM]	IC50 [1, 4] [nM]	IC50 ([2]; trophozoites, n = 2) [nM]
CC(C)NC(=N)c1ccc2nc(-c3ccc(Oc4ccc(-c5nc6ccc(C(=N)NC(C)C)cc6[nH]5)c(C(F)(F)F)c4)cc3)[nH]c2c1 [Compound AH]	1890	90	–	–
CC(C)NC(=N)c1ccc2nc(-c3ccc(Oc4ccc(-c5nc6ccc(C(=N)NC(C)C)cc6[nH]5)cc4)cc3)[nH]c2c1 [Compound AZ]	–	–	550	40
Oc1cccc(-c2nc3ccc(-c4nc5ccc(C6=NCCCCN6)cc5[nH]4)cc3[nH]2)c1 [AO, 3-(6-(4,5,6,7-tetrahydro-1H-1,3-diazepin-2-yl)-1H,3′H-[2,5′-bibenzo[d]imidazol]-2′-yl)phenol]	–	–	2960	250
N=C(N)c1ccc(OCc2ccc(-c3ccc(C(=N)N)cc3)cc2)cc1 [Compound AU]	–	–	2440	360
N=C(N)c1ccc2nc(-c3ccc4nc(-c5ccc(C(N)=O)cc5)[nH]c4c3)[nH]c2c1 [AP, 4-(6-carbamimidoyl-1H,3′H-[2,5′-bibenzo[d]imidazol]-2′-yl)benzamide]	47600	400	–	–
CC(C)NC(=N)c1ccc2nc(-c3ccc(N(C)c4ccc(-c5nc6ccc(C(=N)NC(C)C)cc6[nH]5)cc4)cc3)[nH]c2c1 [BA]	–	–	1700	50
COc1ccc(-c2nc3ccc(-c4nc5ccc(C(=N)NC6CCC6)cc5[nH]4)cc3[nH]2)cc1O [Compound AS]	–	–	2400	280
CC(C)NC(=N)c1ccc2nc(-c3ccc(Oc4ccc(-c5nc6ccc(C(=N)NC(C)C)cc6[nH]5)cc4C#N)c(F)c3)[nH]c2c1 [X, 2-(3-Cyano-4-(2-fluoro-4-(6-(N-isopropylcarbamimidoyl)-1H-benzo[d]imidazol-2-yl)phenoxy)phenyl)-N-isopropyl-1H-benzo[d]imidazole-6-carboximidamide]	–	–	620	100
N=C(N)c1ccc(-c2ccc(-c3cc4cc(C(=N)N)ccc4[nH]3)cc2)cc1 [Compound AW]	13700	350	–	–
CC(C)NC(=N)c1ccc2nc(-c3ccc(Oc4ccc(-c5nc6ccc(C(=N)NC(C)C)cc6[nH]5)c(F)c4)c(C#N)c3)[nH]c2c1 [Y, 2-(3-Cyano-4-(3-fluoro-4-(6-(N-isopropylcarbamimidoyl)-1H-benzo[d]imidazol-2-yl)phenoxy)phenyl)-N-isopropyl-1H-benzo[d]imidazole-6-carboximidamide]	–	–	950	90
CC(C)NC(=N)c1ccc2nc(-c3ccc(Oc4ccc(-c5nc6ccc(C(=N)NC(C)C)cc6[nH]5)cc4I)cc3)[nH]c2c1 [AE, 2-(3-Iodo-4-(4-(6-(N-isopropylcarbamimidoyl)-1H-benzo[d]imidazol-2-yl)phenoxy)phenyl)-N-isopropyl-1H-benzo[d]imidazole-6-carboximidamide]	–	–	1090	380
N=C(C1=NCCCN1)c1ccc2nc(-c3ccc4nc(-c5ccccc5)[nH]c4c3)[nH]c2c1 [AL, (2′-phenyl-1H,3′H-[2,5′-bibenzo[d]imidazol]-6-yl)(1,4,5,6-tetrahydropyrimidin-2-yl)methanimine]	–	–	2330	280
CC(C)NC(=N)c1ccc2nc(-c3ccc(CCc4ccc(-c5nc6ccc(C(=N)NC(C)C)cc6[nH]5)cc4)cc3)[nH]c2c1 [BC]	–	–	> 67800	250
CC(C)NC(=N)c1ccc2nc(-c3ccc(Oc4c(F)cc(-c5nc6ccc(C(=N)NC(C)C)cc6[nH]5)cc4F)cc3)[nH]c2c1 [W, 2-(3,5-Difluoro-4-(4-(6-(N-isopropylcarbamimidoyl)-1H-benzo[d]imidazol-2-yl)phenoxy)phenyl)-N-isopropyl-1H-benzo[d]imidazole-6-carboximidamide]	–	–	33300	290
N=C(NC1CCC1)c1ccc2nc(-c3ccc4nc(-c5cccc(O)c5)[nH]c4c3)[nH]c2c1 [Compound AT]	–	–	1250	400
CC1CCN(C(=N)c2ccc3nc(-c4ccc(Oc5ccc(-c6nc7ccc(C(=N)N8CCC(C)CC8)cc7[nH]6)cc5)cc4)[nH]c3c2)CC1 [BF]	–	–	3870	410
CC(C)NC(=N)c1ccc2nc(-c3ccc(N(c4ccccc4)c4ccc(-c5nc6ccc(C(=N)NC(C)C)cc6[nH]5)cc4)cc3)[nH]c2c1 [BG]	–	–	3100	470
N=C(N)c1ccc(-c2ccc(-c3nc4ccc(C(=N)N)cc4[nH]3)cc2)cc1 [Compound AX]	6050	350	–	–
CC(C)NC(=N)c1ccc2nc(-c3ccc(Oc4ccc(-c5nc6ccc(C(=N)NC(C)C)cc6[nH]5)c(Cl)c4)c(Cl)c3)[nH]c2c1 [AD, 2-(2-Chloro-4-(2-chloro-4-(6-(N-isopropylcarbamimidoyl)-1H-benzo[d]imidazol-2-yl)phenoxy)phenyl)-N-isopropyl-1H-benzo[d]imidazole-6-carboximidamide]	–	–	830	130
CC(C)NC(=N)c1ccc2nc(-c3ccc(Oc4ccc(-c5nc6ccc(C(=N)NC(C)C)cc6[nH]5)c(Cl)c4)cc3)[nH]c2c1 [Compound AG]	–	–	310	50
CC(C)NC(=N)c1ccc2nc(-c3ccc(Oc4ccc(-c5nc6ccc(C(=N)NC(C)C)cc6[nH]5)cc4Cl)cc3)[nH]c2c1 [Compound AJ]	460	50	–	–
CN(C)CCOc1cccc(-c2nc3ccc(-c4nc5ccc(C(=N)N)cc5[nH]4)cc3[nH]2)c1 [AQ, 2′-(3-(2-(dimethylamino)ethoxy)phenyl)-1H,3′H-[2,5-bibenzo[d]imidazole]-6-carboximidamide]	13200	420	–	–
N=C(c1ccc2nc(-c3ccc(Oc4ccc(-c5nc6ccc(C(=N)N7CCSCC7)cc6[nH]5)cc4)cc3)[nH]c2c1)N1CCSCC1 [Compound BH]	–	–	17600	500
COc1cc(Oc2ccc(-c3nc4ccc(C(=N)NC(C)C)cc4[nH]3)cc2)ccc1-c1nc2ccc(C(=N)NC(C)C)cc2[nH]1 [AI]	2920	70	–	–
CC(C)NC(=N)c1ccc2nc(-c3ccc(Oc4c(F)cc(-c5nc6ccc(C(=N)NC(C)C)cc6[nH]5)cc4F)c(F)c3)[nH]c2c1 [AC, 2-(3,5-Difluoro-4-(2-fluoro-4-(6-(N-isopropylcarbamimidoyl)-1H-benzo[d]imidazol-2-yl)phenoxy)phenyl)-N-isopropyl-1H-benzo[d]imidazole-6-carboximidamide]	–	–	1030	390
CC(C)NC(=N)c1ccc2nc(-c3ccc(Oc4ccc(-c5nc6ccc(C(=N)NC(C)C)cc6[nH]5)cc4C#N)cc3)[nH]c2c1 [V, 2-(3-Cyano-4-(4-(6-(N-isopropylcarbamimidoyl)-1H-benzo[d]imidazol-2-yl)phenoxy)phenyl)-N-isopropyl-1H-benzo[d]imidazole-6-carboximidamide]	–	–	1030	70
COc1ccc(-c2nc3ccc(-c4nc5ccc(C(=N)C6=NCCCN6)cc5[nH]4)cc3[nH]2)cc1O [AN, 5-(6-(imino(1,4,5,6-tetrahydropyrimidin-2-yl)methyl)-1H,3′H-[2,5′-bibenzo[d]imidazol]-2′-yl)-2-methoxyphenol]	–	–	480	230
COc1cc(Oc2ccc(-c3nc4ccc(C(=N)NC(C)C)cc4[nH]3)cc2C#N)ccc1-c1nc2ccc(C(=N)NC(C)C)cc2[nH]1 [Z, 2-(3-Cyano-4-(4-(6-(N-isopropylcarbamimidoyl)-1H-benzo[d]imidazol-2-yl)-3-methoxyphenoxy)phenyl)-N-isopropyl-1H-benzo[d]imidazole-6-carboximidamide]	–	–	1870	280
